Reference: publication PMC9081605, “A High-Throughput Toxicity Screen of 42 Per- and Polyfluoroalkyl Substances (PFAS) and Functional Assessment of Migration and Gene Expression in Human Placental Trophoblast Cells” (Frontiers in Toxicology, 2022)
“Also recorded” adds a separate entry of the source.

Columns and labels:
Format in all cases: cell-based, human
JEG-3 cells [1] = assay: Proliferation, change in confluence 0-24 h (IncuCyte Zoom, HTTS); conditions: for minimal effective concentration: read-out: Prolif ↓, lowest concentration at which the mean response value exceeded the mean control value ± 2*SD (rough binning); for cellular proliferation relative to vehicle control (rough binning): after 24 h, in at least one concentration; for Prolif ↑, lowest concentration at which the mean response value exceeded the mean control value ± 2*SD (rough binning): 24 h, increase
Description: (§1) JEG-3 human choriocarcinoma trophoblastic cells (American Type Culture Collection, VA, United States) were maintained in sterile-filtered Minimum Essential Media (MEM) supplemented with L-glutamine and phenol red (Thermo Fisher Scientific, MA, United States), 10% (v/v) heat-inactivated BenchMark Fetal Bovine Serum (Gemini Bio, CA, United States), 1% (v/v) sodium pyruvate (Thermo Fisher Scientific, MA, United States), and 1% (v/v) penicillin streptomycin (Sigma Aldrich, MO, United States). Cells were maintained in an incubator at 37°C with 5% CO2. JEG-3 cells were cultured in 10 cm tissue culture plates and cell passage numbers were recorded.
(§2) A total of 42 perfluoroalkyl substances (PFAS) were evaluated (Supplementary Table S1 contains source and purity). PFAS stock solutions were maintained in 100% methanol as previous work has shown certain PFAS degrade when stored in dimethyl sulfoxide (DMSO; [Gaballah et al., 2020]). […] The vehicle control group consisted of 97.5% media + 2.5% methanol to match the concentration of methanol in the media at the highest PFAS concentration tested (500 µM). Menadione (50–500 µM) was used as a positive control for cytotoxicity assessment. PFAS were de-identified and assigned random numbers to eliminate bias. Chemical exposure plate maps were designed so that all experimental conditions were tested in at least technical duplicates per plate. The outer edges of each plate received media alone and were excluded from all analyses to avoid edge effects. Each plate map included 14 technical replicates of the vehicle control group and 14 technical replicates of media only. Biological replicates were defined as separate 384 well plates tested on separate days using different cell passages. The experimental workflow is depicted in Supplementary Figure S1.
(§3) JEG-3 cells were counted using a Z2 Coulter Particle Counter (Beckman Coulter, CA, United States) and seeded at a density of 2,500 cells per well in black-walled, clear bottom 384 well plates (Corning, #3764) and allowed to adhere overnight. Approximately 24 h later, 384 well plates were imaged using an IncuCyte Zoom live cell imager (Essen BioScience Inc., MI, United States) to obtain baseline cellular confluence measurements prior to chemical dosing (0 h). Media was removed from wells and replaced with fresh media containing chemical treatments (exposure media) using a Viaflo liquid handling device (Integra Biosciences, NH, United States). Within 30 min of exposure media application, plates were again imaged for cellular confluence using the IncuCyte Zoom. Plates were incubated with exposure media for 24 h and then imaged again using the IncuCyte Zoom (24 h).
Plate well bottom images were evaluated using automated cell masking. The automated cell masking program was developed using IncuCyte Zoom base software. Cell masking parameters were defined using a training set of JEG-3 cell images obtained prior to conducting the experiments and following IncuCyte Zoom software recommendations. Briefly, the training images were obtained from cell culture plates with varying levels of JEG-3 cellular confluence (ranging from ∼15% confluent to ∼95% confluent). Parameters for the automated cell masking were first manually set by an experimenter for 3-6 images of low (∼15–30%), medium (∼30–70%), and high confluence (∼70% or greater). The training images were then evaluated by the automated masking program and manually checked to ensure the parameters were sufficiently strict to ignore background (e.g., blank space on the plate well bottom) but adequately sensitive to detect cell borders. The masking program was then implemented on the experimental plates to obtain a baseline cellular confluence measurement at 0 h and a second confluence measurement at 24 h. […]

JEG-3 cells [2] = assay: CellTiter-Glo luminescent cell viability assay (HTTS); conditions: for Viability ↓, lowest concentration at which the mean response value exceeded the mean control value ± 2*SD (rough binning) / Viability ↑, lowest concentration at which the mean response value exceeded the mean control value ± 2*SD (rough binning): 24 h; for Viability ↓, lowest concentration at which the mean response value exceeded the mean control value ± 2*SD (rough binning): decrease; for Viability ↑, lowest concentration at which the mean response value exceeded the mean control value ± 2*SD (rough binning): increase; for cell viability relative to vehicle control (rough binning): after 24 h, in at least one concentration
Description: as §1, §2, §3
In the same plate evaluated for mitochondrial membrane potential, cell viability measures were duplexed using the CellTiter-Glo (CTG) Luminescent Cell Viability Assay (Promega, WI, United States). CTG reagent was added to each well at a volume of 20 µl. The plate was left at room temperature to incubate for 5 min and then 20 µl from each well was transferred to a low-volume, round-bottom, white 384 well plate (Corning, NY, United States). The CTG reagent lyses cellular and mitochondrial membranes and binds to adenosine triphosphate (ATP) released by cells, which produces a luminescence signal. The intensity of the luminescence was considered a proxy measure for the number of live cells in a well. The luminescence intensities were measured using the CLARIOstar plate reader.
HTTS data were analyzed using a custom data analysis script in R v 1.2.5019 ([R Core Team, 2019]). Briefly, raw data points corresponding to the confluence measurements at 0 and 24 h, the fluorescence intensities corresponding to MMP, and the relative luminescence units (RLU) corresponding to cell viability were imported directly from Microsoft Excel into the R programming environment, RStudio. Separate plates run on separate days using different JEG-3 passages were considered as biologic replicates. […]

JEG-3 cells [3] = assay: Mitochondrial membrane potential, JC-10 assay (HTTS); conditions: for minimal effective concentration: read-out: MMP ↓, lowest concentration at which the mean response value exceeded the mean control value ± 2*SD (rough binning); for MMP relative to vehicle control (rough binning): after 24 h, in at least one concentration
Description: as §1, §2, §3
The JC-10 assay (Enzo Life Sciences, NY, United States) was used to evaluate mitochondrial membrane potential, the main bioenergetic parameter that regulates respiratory rate, ATP synthesis and reactive oxygen species generation. In cells with polarized mitochondrial membranes, the JC-10 dye localizes to the mitochondrial matrix and forms red fluorescent aggregates (540/590 nm). In cells with depolarized mitochondrial membranes, the JC-10 dye localizes in the cytoplasm and converts to a green fluorescent monomer (490/525 nm). Mitochondrial membrane potential was calculated as the ratio of the green and red fluorescence intensities within a well.
At the end of the 24 h exposure period, exposure media was removed from the plate. The plate wells were then washed with 1x phosphate buffered saline (1x PBS). After washing, the JC-10 reagent was suspended in fresh 1x PBS and 20 µl was added to each well at a final concentration of 20 μM (Enzo Life Sciences, NY, United States). The plate was incubated for 1 h at 37°C, and the fluorescence intensities at excitation/emission wavelengths of 490/525 nm and 540/590 nm were measured using a CLARIOstar (BMG Labtech, Offenburg, Germany) plate reader, respectively.
HTTS data were analyzed using a custom data analysis script in R v 1.2.5019 ([R Core Team, 2019]). […]

[4] = Homo sapiens, JEG-3, 24 h, read-out: Proliferation EC50 ± SD, JEG-3 cells, 24 h exposure, four-parameter fit, estimates meeting inclusion criteria
[5] = Homo sapiens, JEG-3, 24 h, read-out: Viability EC50 ± SD, JEG-3 cells, 24 h exposure, four-parameter fit, estimates meeting inclusion criteria
[6] = Homo sapiens, JEG-3, 24 h, read-out: MMP EC50 ± SD, JEG-3 cells, 24 h exposure, four-parameter fit, estimates meeting inclusion criteria
[7] = read-out: MMP EC50 ± SD, JEG-3 cells, 24 h exposure, four-parameter fit, estimates meeting inclusion criteria
[8] = JEG-3 cells, 24 h exposure, four-parameter fit, estimates meeting inclusion criteria, read-out: Proliferation EC50 ± SD
[9] = JEG-3 cells, 24 h exposure, four-parameter fit, estimates meeting inclusion criteria, read-out: Viability EC50 ± SD
[10] = JEG-3 cells, raw model output including fits that did not meet inclusion criteria, read-out: MMP EC50 ± SD (raw values)

Compound	minimal effective concentration (JEG-3 cells [1]; Homo sapiens, JEG-3, 24 h) [µM]	EC50 (JEG-3 cells [1]; [4]) [µM]	cellular proliferation relative to vehicle control (rough binning) (JEG-3 cells [1])	EC50 (JEG-3 cells [2]; [5]) [µM]	Viability ↑, lowest concentration at which the mean response value exceeded the mean control value ± 2*SD (rough binning) (JEG-3 cells [2]; JEG-3 cells) [µM]	cell viability relative to vehicle control (rough binning) (JEG-3 cells [2])	EC50 (JEG-3 cells [3]; [6]) [µM]	minimal effective concentration (JEG-3 cells [3]; Homo sapiens, JEG-3, 24 h) [µM]	MMP relative to vehicle control (rough binning) (JEG-3 cells [3])	other results
O=C(O)C(F)(F)C(F)(F)C(F)(F)C(F)(F)C(F)(F)C(F)(F)C(F)(F)C(F)(F)C(F)(F)F [Perfluorodecanoic acid]	250	234 ± 22.8	reduced cellular proliferation	181 ± 25.6	50	reduced cell viability; also recorded: increased cell viability	236 ± 160	50	reduced MMP	EC50 (JEG-3 cells [2]; Homo sapiens, JEG-3, 24 h, read-out: viability EC50 ± SE, JEG-3 cells, 24 h): 181 ± 26 µM; Viability ↓, lowest concentration at which the mean response value exceeded the mean control value ± 2*SD (rough binning) (JEG-3 cells [2]; JEG-3 cells): 200 µM
O=C(O)C(F)(F)OC(F)(F)C(F)(F)OC(F)(F)C(F)(F)C(F)(F)C(F)(F)F [Perfluoro-3,6-dioxadecanoic acid]	300	283 ± 25.7	reduced cellular proliferation			reduced cell viability	350 ± 16.1	400	reduced MMP	Viability ↓, lowest concentration at which the mean response value exceeded the mean control value ± 2*SD (rough binning) (JEG-3 cells [2]; JEG-3 cells): 400 µM
O=S(=O)(O)C(F)(F)C(F)(F)C(F)(F)C(F)(F)C(F)(F)C(F)(F)F [Perfluorohexanesulfonic acid]	350	252 ± 21.7	reduced cellular proliferation	289 ± 29.6	50	increased cell viability	86.2			EC50 (JEG-3 cells [3]; Homo sapiens, JEG-3, 24 h, read-out: MMP EC50 ± SE, JEG-3 cells, 24 h): 86.2 ± 72.3 µM; EC50 (JEG-3 cells [3]; [7]): 86.6 ± 71.5 µM
O=C(O)C(F)(F)OC(F)(F)C(F)(F)OC(F)(F)F [Perfluoro-3,6-dioxaheptanoic acid]	400	351 ± 11.8	reduced cellular proliferation	326 ± 85.7	200	increased cell viability	368	400	reduced MMP	EC50 (JEG-3 cells [3]; [7]): 368 ± 22.6 µM
O=C(O)C(F)(F)C(F)(F)C(F)(F)F [Perfluorobutanoic acid]					50	increased cell viability			reduced MMP	EC50 (JEG-3 cells [1]; [8]): 209 ± 360 µM; EC50 (JEG-3 cells [2]; [9]): 226 ± 116 µM; MMP ↓, lowest concentration at which the mean response value exceeded the mean control value ± 2*SD (rough binning) (JEG-3 cells [3]; JEG-3 cells, 24 h, decrease): 50 µM; EC50 (JEG-3 cells [3]; [10]): 52 µM
O=C(O)C(F)(F)C(F)(F)OC(F)(F)F [Perfluoro-3-methoxypropanoic acid]		204 ± 111		304 ± 28.2			93.1 ± 132			
O=P(O)(O)OCCC(F)(F)C(F)(F)C(F)(F)C(F)(F)C(F)(F)C(F)(F)C(F)(F)C(F)(F)F [8:2 Fluorotelomer phosphate monoester]										EC50 (JEG-3 cells [1]; [8]): 251 ± 37.6 µM; EC50 (JEG-3 cells [2]; [9]): 360 ± 30.3 µM; EC50 (JEG-3 cells [3]; JEG-3 cells, 24 h exposure, four-parameter fit, estimates meeting inclusion criteria, read-out: MMP EC50 ± SD): 312 ± 29.8 µM
O=P(O)(OCCC(F)(F)C(F)(F)C(F)(F)C(F)(F)C(F)(F)C(F)(F)F)OCCC(F)(F)C(F)(F)C(F)(F)C(F)(F)C(F)(F)C(F)(F)F [6:2 Fluorotelomer phosphate diester]	188	142 ± 39.2	reduced cellular proliferation; also recorded: increased cellular proliferation		112.5	increased cell viability				EC50 (JEG-3 cells [1]; Homo sapiens, JEG-3, 24 h, read-out: proliferation EC50 ± SE, JEG-3 cells, 24 h): 142 ± 39.4 µM; Prolif ↑, lowest concentration at which the mean response value exceeded the mean control value ± 2*SD (rough binning) (JEG-3 cells [1]; JEG-3 cells): 37.5 µM; EC50 (JEG-3 cells [3]; Homo sapiens, JEG-3, read-out: MMP EC50 ± SD (raw values), JEG-3 cells, raw model output including fits that did not meet inclusion criteria): 64402 ± 10 µM
O=C(O)CCC(F)(F)C(F)(F)C(F)(F)C(F)(F)C(F)(F)F [2H,2H,3H,3H-Perfluorooctanoic acid]			increased cellular proliferation			increased cell viability				Prolif ↑, lowest concentration at which the mean response value exceeded the mean control value ± 2*SD (rough binning) (JEG-3 cells [1]; JEG-3 cells): 50 µM; EC50 (JEG-3 cells [1]; JEG-3 cells, raw model output including fits that did not meet inclusion criteria, read-out: Proliferation EC50 ± SD (raw values)): 951 ± 671 µM; EC50 (JEG-3 cells [3]; [10]): 71780 ± 10 µM
